# Data: PMC6027146, “Synthesis and Structure-Activity Relationships of (−)-cis-N-Normetazocine-Based LP1 Derivatives” (Pharmaceuticals, 2018)
# Experiments:
# rat-MOR = target: T1, rat-MOR (Rattus norvegicus, UniProt P33535); experiment: Radioligand competition binding, [3H]-DPN, HEK293 membranes, MOR; conditions: [3H]-DPN displacement; means ± SEM of three experiments in duplicate; read-out: Ki (μM) ± SEM MOR
# T1 construct: expressed in transfected cells
# Description: All synthesized compounds were tested in vitro by radioligand competition binding using [^3H]-diprenorphine ([^3H]-DPN) to measure the affinity for opioid receptor subtypes in membranes from HEK293 cells stably expressing either MOR, DOR, or KOR, as previously described.
# Confluent monolayers of HEK293 (human embryonic kidney 293) cells stably expressing rat-MOR, rat-DOR, or human-KOR were harvested, collected by centrifugation at 1500 rpm for 5 min, and washed once with phosphate-buffered saline (PBS) at pH 7.5. Membranes from cell pellets were carried out as described by Georgoussi and Zioudrou (1993) and Papakonstantinou et al. (2015). Briefly, cell pellets were resuspended in ice-cold membrane buffer (10 mM Tris-HCl, pH 7.5 and 0.1 mM EDTA), homogenized, and centrifuged at 2,000 g for 3 min at 4 °C. Supernatants were further centrifuged at 45,000 rpm for 30 min at 4 °C. The membrane pellet was resuspended in ice-cold membrane buffer at a protein concentration of approximately 1 mg/mL and stored in aliquots at −70 °C. Protein concentration was determined according to Bradford assay.
# In the experiments designed to define compound affinity and selectivity for MOR, DOR, and KOR, membranes expressing each of these opioid receptors ([…]) were incubated at 30 °C for 45 min in buffer containing 50 mM Tris-HCl, pH 7.5, 100 mM NaCl, and 10 mM MgCl2 as described by Georgoussi et al. […] The ability of compounds 10–16 to displace [^3H]-DPN (3.75 nM) binding to the opioid receptors was assessed as described by Morou And Georgoussi (2005). Non-specific binding was measured in the presence of […] Naloxone. The reaction was stopped by rapid filtration and three washes in ice-cold 50 mM Tris-HCl, pH 7.4, through GF/C filters (Whatman, Maidstone, UK) using an automated cell harvester (Brandel Inc., Gaithersburg, MD, USA). The radioactivity was measured by liquid scintillation counting (Liquid Scintillation Analyzer, Packard).
# Analysis of the binding data was performed using the Origin 7.5 software (OriginLab Corporation, Northampton, MA, USA). In calcium mobilization experiments, data were analyzed by non-linear curve fitting equation, using GraphPad 5.0 software. […] Ligand efficacy was expressed as intrinsic activity (α), calculated as the ratio between the Emax of the ligand and that of the respective standards. Calcium mobilization data were expressed as FIU (fluorescence intensity units) in percent, over the baseline. Agonist potencies are given as pEC50 (the negative logarithm to base 10 of the molar concentration of an agonist that produces 50% of the maximal possible effect, Emax). Concentration response curves to agonists were fitted with the following equation: Effect = baseline + (Emax − baseline)/(1+10^(LogEC50 − X) ∗ HillSlope) where X is the agonist concentration.
# [1] = test system: cells expressing the GαqG66Di5 chimeric protein, but not DOR; experiment: Calcium mobilization in cells expressing the GαqG66Di5 chimeric protein, but not DOR; format: cell-based; conditions: up to 10 μM; data not shown
# Description: The LP1 functional profile at DOR, previously in vitro detected by adenylyl cyclase, and the [^35S]GTPγS binding assays was controversial. […] Similar findings with DOR spontaneous activity and effects of DOR antagonists have been previously described. This effect was reversed at higher LP1 concentrations. These [^35S]GTPγS binding results reveal the role of LP1 as a DOR antagonist ligand. […] The DOR antagonist profile of LP1 was also detected in vivo by rat tail flick test. […] The remaining LP1 derivatives 11–16 were not able to stimulate calcium mobilization in CHO^DOR cells stably expressing the GαqG66Di5 protein. […]
# CHO cells, expressing human opioid receptors and the Gαqi5 protein, and CHODOR, expressing the GαqG66Di5 protein, were maintained in culture medium consisting of Dulbecco minimum essential medium (DMEM) and Ham F-12 (1:1) (50/50) supplemented with 10% fetal calf serum (FCS), L-glutamine (2 mM), geneticin (200 μg/mL; G418), hygromycin B (100 μg/mL) at 37 °C in 5% CO2 humidified air. […] After placing both plates (cell culture and compound plate) into the FlexStation II (Molecular Device, Union City, San Jose, CA 94587, USA), fluorescence changes were measured at room temperature. […] Maximum change in fluorescence, expressed in percent of baseline fluorescence, was used to determine agonist response.
# DOR [2] = test system: DOR; parameters: method as in PMID 20599386; conditions: less potent than DPDPE; cited from earlier work
# DOR [3] = test system: DOR; parameters: method as in PMID 22100511; conditions: 10 nM; cited from earlier work
# T1 sequence (P33535 whole entry): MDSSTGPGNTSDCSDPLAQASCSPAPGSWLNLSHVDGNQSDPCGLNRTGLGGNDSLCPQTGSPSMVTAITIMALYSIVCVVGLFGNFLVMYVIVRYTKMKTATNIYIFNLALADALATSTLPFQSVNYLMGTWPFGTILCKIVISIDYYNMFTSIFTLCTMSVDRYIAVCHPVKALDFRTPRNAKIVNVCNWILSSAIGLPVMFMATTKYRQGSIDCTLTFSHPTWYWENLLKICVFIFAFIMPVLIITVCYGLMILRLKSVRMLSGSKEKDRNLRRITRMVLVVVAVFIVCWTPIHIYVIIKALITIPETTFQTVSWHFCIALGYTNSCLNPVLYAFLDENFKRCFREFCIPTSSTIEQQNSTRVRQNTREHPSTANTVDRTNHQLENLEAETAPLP
compound,measurement,setting,value
"C[C@H]1[C@H]2Cc3ccc(O)cc3[C@]1(C)CCN2CCC(=O)Nc1ccccc1 [LP1, 3-[(2R,6R,11R)-8-hydroxy-6,11-dimethyl-1,4,5,6-tetrahydro-2,6-methano-3-benzazocin-3(2H)-yl]-N-phenylpropanamide, reference compound]",Ki,rat-MOR,0.049 ± 0.015 µM
same,calcium mobilization in cells without DOR,[1],completely inactive
same,potency in inhibiting cAMP accumulation relative to DPDPE (fold less potent),DOR [2],approximately 85 fold
same,inhibition of [35S]GTPγS binding,DOR [3],30%
